Data reported in patent publication US20240208950A1, “COMPOSITIONS AND METHODS FOR TREATMENT OF CERVICAL AND OVARIAN CANCER” (SOUTH DAKOTA BOARD OF REGENTS, priority 2021, published 2024).

How the values were obtained:
Type in all cases: cell-based, human
SiHa cells = assay: Cell migration (agarose bead, scratch wound), SiHa; conditions: 0 and 48 hours
Protocol: FIGS. 7B and 7D show the effect of ORM-Br on motility potential of CaSki cells (FIG. 7B) and SiHa cells (FIG. 7D) as predicted by agarose bead assay. The images shown in FIGS. 7A-7D represent the migratory cells (MC) in control and ORM-Br treated groups at 0 and 48 hours. In FIGS. 7B and 7D, AB means agarose beads. In FIGS. 7A-7D the images magnification were at 4.
Cell motility was performed by in vitro scratch wound assay. Briefly, cells were seeded in a 12-wells plate and after 80-90% confluency a standardized wound was made using a 200 μL micropipette tip. Cells were then treated with Br-ORM (10 μM) and photographed by phase contrast microscopy. […]
FIG. 14. […] Effect of Br-ORM on cell migration of cervical cancer cells as determined by agarose bead (FIG. 14A), scratch wound healing (FIG. 14B), and Boyden chamber assay (FIG. 14C). […] Closure of wound was determined and photographed using phase contrast microscopy. […] Bar graph represent the quantification of migrated CaSki cells of control and Br-ORM treated groups (FIG. 14C(ii)). […] Effect of Br-ORM treatment on invasion of CaSki cells as determined by a commercially available kit (BD Biosciences) as described in materials and methods. In brief, 24 hours post-treatment of Br-ORM, invaded cells were fixed, stained and counted. […] Bar graph represent the quantification of invaded CaSki cells of control and Br-ORM treated groups (FIG. 14D(ii)). […]

[1] = test system: HPV16 E6 and E7 transcripts in SiHa cells; assay: qPCR of HPV E6 and HPV E7 transcripts, SiHa; conditions: 18 hours
[2] = test system: E-cadherin and N-cadherin mRNA in cervical cancer cells; assay: qPCR of E-cadherin and N-cadherin; conditions: both cervical cancer cells, 18 hours
Protocol: RNA from cervical cancer cells was isolated using Qiagen kit and quantified using NanoDrop instrument 2000 (Thermo Scientific, Waltham, MA, USA). To analyze the expression of miR-200a in control and Br-ORM treated cells, 100 ng total RNA was reverse transcribed into cDNA using specific primers designed for miRNA analysis (Applied Biosystems, Foster City, CA, USA). The expression of this miRNAs was determined by qRT-PCR using the Taqman PCR master mixture and specific primers designed for detection of mature miRNAs (Applied Biosystems). The expression of miRNA was normalized with the expression of endogenous control, RNU6B.
Epithelial mesenchymal transition (EMT) is the basic characteristic of cancer cells in which epithelial cells undergo morphologic and molecular changes that transform the cells to mesenchymal, highly metastatic (invasive and motile), and drug-resistant phenotypes. […] The effect of Br-ORM treatment on various EMT markers in cervical cancer cells was evaluated. […] The effect of Br-ORM on expression of EMT markers in cervical cancer cells compared to untreated group by use of qPCR analysis was determined. […] Expression of E-cadherin in cervical cancer cells treated with Br-ORM (10 μM) for 18 hours was also determined by immunofluorescence and confocal microscopy. […]
FIG. 14. […] Closure of wound was determined and photographed using phase contrast microscopy. […]

`COc1ccc2c(c1)OC(C)(C)C(c1ccc(Br)cc1)C2c1ccc(OCCN2CCCC2)cc1` (centres unmarked) [ORM-Br] was tested, and the “cell migration / motility” value (SiHa cells) was “inhibits the migration”, the “cell migration / motility” value (SiHa cells; listed as Br-ORM) was “dose dependent inhibition of migration abilities” and the “HPV16 E6 and E7 transcripts” value [1] was “significant downregulation”. For the same molecule, the “mRNA level of E-cadherin” value [2] was “significantly elevated” and the “mRNA level of N-cadherin” value [2] was “significantly reduced”.
